Read-outs that look alike come from different tables or passages of the source. Where no end group is shown, it is not given here.
Experiments:
Go = target: T1, Go (Bos taurus, UniProt P08239); assay: steady state GTPase activity of Go in phospholipid vesicles; type: biochemical, bovine; conditions: for GTPase Go 100 μM: 100 μM peptide, 15 min at 20° C., PE/PC/PS vesicles
T1 construct: proteins were extracted from bovine cerebral cortical membranes; from tissue; host or cells: bovine brain (cerebral cortical membranes)
Excerpt: (§1) G proteins were reconstituted into phospholipid vesicles composed of dioleoyl-PC/bovine brain PS/1-palmitoyl,2-oleoyl-PE (3:4:3) as reported previously by Higashijima et al., 1988, incorporated herein by reference.

Gs = Gs (Homo sapiens, UniProt P63092); assay: steady state GTPase activity of Gs; type: biochemical; conditions: read-out: Gs af. (apparent affinity, estimated by EC50 of GTPase activity)
Experimental: Methods for the assay of steady state GTP hydrolysis and GTPγS binding have been described previously by Higashijima, 1987, and Ferguson, 1986, and incorporated herein by reference. Unless noted otherwise, assays of steady state GTP hydrolysis and of the binding and dissociation of guanine nucleotides were carried out in the buffer described previously, but without detergent and with 1.1 mM MgSO4 and the nucleotide specified in the text. When necessary, the concentration of free Mg^2+ was adjusted using EDTA buffers as described previously by Higashijima, 1987, and incorporated herein by reference.
The data set forth in the following tables represent data generated by the inventors employing the steady state GTP hydrolysis, expressed as molar turnover numbers, are described herein under the "Assay" section of the Experimental Procedures in Example 1. The data has been classified according to the criteria outlined below and the effects of each peptide and modified variant on Go, Gi, and Gs have been tabulated. Table III below sets forth data generated for various mastoparan analogues designed by the inventors, in comparison with the various naturally-occurring mastoparans (e.g., MP, MP-A and MP-T). Table IV sets forth similar data generated for various receptor-based peptides designed by the inventors based on a consideration of various G-protein linked receptors.
Apparent affinity (af.) and apparent efficacy (ef.) were estimated by EC50 and maximum turnover number of GTPase activity.

Gi = assay: steady state GTPase activity of Gi in phospholipid vesicles; type: biochemical, rabbit; conditions: for GTPase Gi 100 μM: 100 μM peptide, 30 min at 30° C., PE/PC/PS vesicles;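 as to all read-outs here: Steady-state GTP hydrolysis by Gi measured in a detergent-free buffer containing 1.1 mM MgSO4 plus the specified guanine nucleotide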
Experimental: as §1
The concentration of free Mg^2+ in assay medium that contains 5 mM EDTA and no added Mg^2+ is estimated to be 0.1-0.2 nM according to Brandt et al., 1988 and 1983.

[1] = Table VI, receptor-based peptides

Chain of Gs (P63092 whole entry): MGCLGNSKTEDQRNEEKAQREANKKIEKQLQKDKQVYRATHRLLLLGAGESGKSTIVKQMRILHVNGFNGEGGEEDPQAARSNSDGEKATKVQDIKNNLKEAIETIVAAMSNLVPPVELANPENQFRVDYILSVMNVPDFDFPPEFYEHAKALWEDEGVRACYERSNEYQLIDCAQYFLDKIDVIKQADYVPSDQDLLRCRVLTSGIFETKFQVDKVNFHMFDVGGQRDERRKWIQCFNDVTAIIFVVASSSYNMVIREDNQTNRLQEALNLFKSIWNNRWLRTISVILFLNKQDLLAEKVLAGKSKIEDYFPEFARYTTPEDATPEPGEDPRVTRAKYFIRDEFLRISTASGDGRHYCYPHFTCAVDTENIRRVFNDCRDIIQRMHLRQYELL
T1 sequence (P08239 2-354 limits assumed): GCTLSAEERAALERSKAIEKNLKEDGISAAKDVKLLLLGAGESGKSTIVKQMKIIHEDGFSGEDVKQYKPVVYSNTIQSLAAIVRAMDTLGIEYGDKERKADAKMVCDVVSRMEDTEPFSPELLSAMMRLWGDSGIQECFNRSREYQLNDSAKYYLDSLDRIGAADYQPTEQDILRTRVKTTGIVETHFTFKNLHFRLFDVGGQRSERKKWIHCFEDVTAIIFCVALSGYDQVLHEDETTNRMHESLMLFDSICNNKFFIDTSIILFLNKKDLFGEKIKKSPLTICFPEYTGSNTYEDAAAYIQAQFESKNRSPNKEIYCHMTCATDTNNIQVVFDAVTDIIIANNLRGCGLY
T1 sequence (P62871 2-340 partner limits assumed): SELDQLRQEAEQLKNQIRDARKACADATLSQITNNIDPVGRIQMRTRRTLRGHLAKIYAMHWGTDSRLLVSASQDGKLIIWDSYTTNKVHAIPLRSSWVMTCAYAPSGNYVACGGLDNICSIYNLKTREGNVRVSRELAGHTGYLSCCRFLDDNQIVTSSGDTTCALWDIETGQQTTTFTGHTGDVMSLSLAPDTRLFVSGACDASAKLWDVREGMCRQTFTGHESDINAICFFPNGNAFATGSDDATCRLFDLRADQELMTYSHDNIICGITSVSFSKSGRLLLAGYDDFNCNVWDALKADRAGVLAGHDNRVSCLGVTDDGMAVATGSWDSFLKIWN
T1 sequence (P63212 2-68 partner limits assumed): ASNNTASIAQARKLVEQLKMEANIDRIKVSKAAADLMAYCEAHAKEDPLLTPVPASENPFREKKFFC

Substance | EC50 (Go) | EC50 (Gs; Table IV) | also measured
INLKALAALAKRLL-NH2 [MAS08] | 3 to 10 µM | 3 to 10 µM | –
INLKALAALAQALL-NH2 [ER3] | 10 to 30 µM | 3 to 10 µM | –
INLKALAALARALL-NH2 [ER2] | < 3 µM | 3 to 10 µM | –
INLKALAALARKLL-NH2 [MAS10] | 3 to 10 µM | 3 to 10 µM | –
INLKALAALKKKLL-NH2 [MAS11] | 10 to 30 µM | 3 to 10 µM | –
INLKALAKLAKKLL-NH2 [MAS14] | 10 to 30 µM | 3 to 10 µM | –
INLKALKALAKALL-NH2 [ER10] | < 3 µM | 3 to 10 µM | –
INLKALKALAKKLL-NH2 [MAS15] | 10 to 30 µM | 3 to 10 µM | –
INLKKLAALAKKLL-NH2 [MAS18] | 10 to 30 µM | 3 to 10 µM | –
INLQALAALAKALL-NH2 [ER8] | 3 to 10 µM | 3 to 10 µM | –
INLQALAALAQALL-NH2 [ER9] | 30 to 100 µM | 10 to 30 µM | –
INLQALKALAKALL-NH2 [ER11] | 3 to 10 µM | 3 to 10 µM | –
INLRALAALAKALL-NH2 [ER6] | < 3 µM | 3 to 10 µM | –
INLRALAALAKKLL-NH2 [MAS20] | 3 to 10 µM | 3 to 10 µM | –
INLRALAALARALL-NH2 [ER7] | < 3 µM | 3 to 10 µM | –
INLRALAALRRRLL-NH2 [ER28] | < 3 µM | 3 to 10 µM | –
INLRALRALARALL-NH2 [ER24] | < 3 µM | 3 to 10 µM | –
INWRAWRAWARAWL-NH2 [ER27] | < 3 µM | 3 to 10 µM | –
INYKALAACAKKIL-NH2 [ER14] | 3 to 10 µM | 3 to 10 µM | –
INYKALAALAKALC-NH2 [ER17] | 3 to 10 µM | 10 to 30 µM | –
INYKALCALAKKIL-NH2 [ER15] | 30 to 100 µM | 10 to 30 µM | –
IQLKALAALAKALL-NH2 [ER12] | 3 to 10 µM | 3 to 10 µM | –
IVYREAKEQIRKIDRVL-NH2 [ER22] | 30 to 100 µM | – | EC50 (Gs; [1]): 30 to 100 µM
IVYREAKEQIRKIL-NH2 [ER23] | 30 to 100 µM | – | EC50 (Gs; [1]): 30 to 100 µM
Melanostatin [reference compound] | – | – | GTPase Go 100 μM (Go): 0.05 min⁻¹; GTPase Gi 100 μM (Gi): 0.03 min⁻¹
REHKALKTLGIIC-NH2 [ER40] | > 100 µM | – | EC50 (Gs; [1]): 30 to 100 µM
RPPGFSPFR [Bradykinin, reference compound] | – | – | GTPase Go 100 μM (Go): 0.05 min⁻¹; GTPase Gi 100 μM (Gi): 0.03 min⁻¹
Substance P [reference compound] | – | – | GTPase Go 100 μM (Go): 0.25 min⁻¹; stimulation of Go (Go; GTPase, Table II): more than 4 fold; GTPase Gi 100 μM (Gi): 0.09 min⁻¹; stimulation of Gi (Gi; GTPase, Table II): more than 4 fold
[D-Ala^2 ]Leu-enkephalin [DALE, reference compound] | – | – | GTPase Go 100 μM (Go): 0.06 min⁻¹; GTPase Gi 100 μM (Gi): 0.02 min⁻¹

Reference: patent US5589568A (priority 1994, dated 1996)
